Like-named read-outs stand apart in the source and are kept apart here.
Columns and labels:
[1] = system: HepG2-A16-CD81EGFP cells; assay: cells; details: Homo sapiens, HepG2, read-out: % inhibition
[2] = system: HepG2-A16-CD81EGFP cells; assay: cells; details: Homo sapiens, HepG2, read-out: % inhibition; remark: listed apart in the source
[3] = system: Plasmodium berghei (Pb-Luc) exoerythrocytic-stage parasites; assay: microbe, parasite or virus in culture
[4] = read-out: Inhibition% @ 50 uM rep1
[5] = read-out: Inhibition% @ 50 uM rep2

SMILES | inhibition at 50 µM [1] | inhibition at 50 µM [2] | inhibition at 50 µM [3, 4] | inhibition at 50 µM [3, 5]
CC1CCCCN1CCCNC(=O)c1ccc2c(c1)sc1nc(-c3ccc(F)cc3)cn12 (stereo not shown) [MMV000634] | 98.9% | 97% | 103% | 103%
CCN(CC)S(=O)(=O)c1ccc(-c2csc(Nc3ccc(C)c(C)c3)n2)cc1 [MMV009108] | 80.9% | 72.2% | 97% | 96%
O=C(Nc1ccc(Br)cc1)Nc1cccc(Cl)c1 [MMV001318] | 65.5% | 66.2% | 103% | 102%
O=C(Nc1ccc(Cl)cc1)N1CCN(c2ccc3nncn3n2)CC1 [MMV665917] | 8.42% | 38.3% | 60% | 62%
O=C(Nc1ccc(Cl)cc1C(=O)Nc1ccncc1)c1ccc(Cl)cc1Cl [MMV666057] | 94.5% | 78.3% | 101% | 102%
O=C(NC1CCN(Cc2ccccc2)CC1)c1cc(-c2ccncc2)nc2ccc(Cl)cc12 [MMV020275] | 90.6% | 89.1% | 52% | 39%
CCC1(C)CC(CCNCc2ccccc2O)(c2ccc(C)cc2)CCO1 (stereo not shown) [MMV019406] | 98.3% | 96.7% | 102% | 102%
CCCCCCOC(=O)C1=C(C)NC(=O)NC1c1ccccc1F (stereo not shown) [MMV007686] | 4.22% | 19.1% | 69% | 63%
CSc1ccccc1C(=O)Nc1nc(-c2ccccn2)cs1 [MMV001246] | 86.4% | 82.2% | 101% | 104%
COc1ccc(-c2nonc2NC(=O)c2cccc(Cl)c2)cc1OC [MMV020660] | 93.3% | 92% | 104% | 106%
O=c1nc(C=Cc2ccc(Cl)cc2)oc2ccccc12 [MMV007977] | 85.9% | 78.9% | 104% | 106%
CCOc1cc(Cl)c(C(C)NC(=O)c2cccc(OC)c2)cc1OCC (stereo not shown) [MMV665803] | 97.7% | 86.5% | 104% | 106%
COc1ccc(Br)cc1C1Nc2ccc3ccccc3c2C2=C1C(=O)CC(c1ccccc1)C2 (stereo not shown) [MMV020885] | 75.1% | 69.1% | 102% | 102%
CCOc1ccccc1CNC(=O)C1c2ccccc2C(=O)N(CC(C)C)C1c1cccs1 (stereo not shown) [MMV000653] | 94% | 90.2% | 104% | 106%
CCn1c(SCC(=O)Nc2cc(C(F)(F)F)ccc2Cl)nc2ccccc2c1=O [MMV666103] | -0.573% | -3.72% | 69% | 87%
Fc1ccc2[nH]c3c(NCCCN4CCOCC4)ncnc3c2c1 [MMV019871] | 74.2% | 58.8% | 103% | 103%
O=C(CSc1ccc2nnc(-c3cccc(F)c3)n2n1)Nc1ccc2c(c1)OCO2 [MMV665918] | 0.859% | -2.83% | -43% | -48%
Oc1ccccc1CNCC12CC3CC(CC(C3)C1)C2 [MMV020788] | 95.9% | 94% | 102% | 103%
COc1ccccc1CNC(=O)C1c2ccccc2C(=O)N(CC(C)C)C1c1cccs1 (stereo not shown) [MMV000648] | 91.6% | 83.2% | 103% | 105%
O=C1CC(O)(C(F)(F)C(F)(F)F)Oc2ccccc21 (stereo not shown) [MMV000972] | 97.9% | 96.7% | 103% | 105%
Oc1ccc(Cl)cc1CNc1nc2ccccc2[nH]1 [MMV665850] | 98.7% | 98.1% | 103% | 104%
CCCc1c(CC)c(=N)c2ccccc2n1C [MMV008416] | 84% | 83.1% | 101% | 104%
